# According to patent US8613927B2, “High affinity human antibodies to human nerve growth factor” (Regeneron Pharmaceuticals, Inc., priority 2007, dated 2013):
# Experiments:
# C57BL/6 mice = assay: Post-operative incision pain model, weight bearing test; type: in vivo, mouse; details: for mean percent weight distribution on affected limb: Table 15
# Protocol: Post-operative incision pain model. A rodent model of post-operative pain in which a hind paw plantar incision causes increased sensitivity to touch, guarding behavior, and thermal hyperalgesia, was used to study the efficacy of anti-NGF antibody therapy. For the plantar incision surgery, C57BL/6 mice under isoflurane received an incision through skin, fascia and then isolating the underlying flexor muscle and bisecting vertically. After suture and recovery, the mice were tested for thermal hyperalgesia in the Hargreaves' test and for guarding behavior in the weight bearing test (model 600, IITC Life Science) for 5 days.
# [1] = molecular target: T1, Human NGF (MG87 cells stably transfected with human TrkA receptor) (Homo sapiens, UniProt P01138, DEL136-138/DEL208-209); assay: NGF-dependent, TrkA receptor-mediated cell growth of MG87 cells (CCK8); type: cell-based; details: 373 pM human NGF; 3 days
# T1 construct: host or cells: NGF added exogenously; partner TrkA made by stably transfected MG87 cells
# Protocol: The ability of NGF antibodies to block NGF-dependent and TrkA receptor-mediated cell growth activity was carried out using MG87 cells stably transfected with a plasmid encoding human TrkA receptor. Briefly, the transfected cells were trypsinized and resuspended at approximately 2.5×10^5 cells per ml and plated at 5,000 cells per well in a 96-well tissue culture plate. The purified antibody proteins were serially diluted in defined medium plus 0.1% BSA and added to the plated cells at concentrations ranging from 0 to 500 nM. Human NGF was added to the wells to a final concentration of 373 pM. The response was measured after incubating the cells for 3 days at 37° C. in a humidified 5% CO2 incubator. Cell growth activity was measured with a CCK8 kit (Dojindo) and OD450nm recorded. The dependency of the signals on the concentrations of antibody was analyzed and IC50 values reported (Table 10, column 2).
# [2] = system: circulating levels of neurotrophin-3 (NT-3); assay: Serum NT-3 sandwich ELISA, mice of post incision pain model; type: in vivo, mouse; details: day 4, 25 mg/kg i.p., mean±std dev, limit of detection ~40 pg/ml
# Excerpt: On day 4, after the behavioral tests from post incision pain model were completed, the mice's sera were collected and analyzed for circulating levels of neurotrophin-3 (NT-3) using a sandwich ELISA. The limit of detection (˜40 pg/ml) was defined as two standard deviations (2σ) above background with a minimum of five NT-3 standards to define the response to concentration curve.
# [3] = molecular target: T2, NT-3 signaling through p75 and TrkA in PC12 cell line (Homo sapiens, UniProt P20783); assay: PC12 SRE-luciferase assay with 75 nM NT-3 instead of NGF; type: cell-based; details: read-out: IC50, blocking of NT-3 signaling
# T2 construct: host or cells: NT-3 added exogenously; receptors endogenous in PC12 cells
# T2 sequence (P20783 139-257): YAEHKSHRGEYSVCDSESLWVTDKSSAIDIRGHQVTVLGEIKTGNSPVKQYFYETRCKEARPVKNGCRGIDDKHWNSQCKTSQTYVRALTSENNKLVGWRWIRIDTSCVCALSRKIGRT
# Protocol: The ability of NGF antibodies to block NGF signaling p75 and TrkA receptor-mediated activity was also measured in vitro using a rat adrenal medulla cell line, PC12, which express both receptors endogenously (Urdiales et al. 1998 J. Neuroscience 18(17):6767-6775). Briefly, PC12 cells were stably transfected with a reporter plasmid containing a serum response element (SRE) linked to a luciferase gene. The transfected cells were resuspended at approximately 2.5×10^5 cells per ml and plated at 50,000 cells per well in a 96-well tissue culture plate in Opti-MEM media overnight. The purified antibody proteins were serially diluted in medium (DMEM plus 0.1% BSA) and added to the plated cells at concentrations ranging from 0 to 100 nM. […] Luciferase activity was measured after incubating the cells for 6 hours at 37° C. in a humidified 7.5% CO2 incubator using BRIGHT GLOW™ luciferase assay system (Promega). Control mAb=RN624.
# rat NGF (rNGF) = rat NGF (rNGF) (Rattus norvegicus, UniProt P25427); assay: BIACORE binding affinity to rat NGF
# Protocol: Antigen binding affinities of the antibodies for human NGF were determined by surface kinetics using a real-time biosensor surface plasmon resonance assay (BIACORE™). Antibodies were captured on either a goat, anti-human or anti-mouse IgG polyclonal antibody surface created by direct amine coupling of the capture antibody to a BIACORE™ chip. Various concentrations of human NGF were injected over the captured antibody surfaces while the association of the antigen to the antibody and the dissociation of the bound complex were monitored in real time. Kinetic analysis was performed to obtain the equilibrium dissociation constant (KD) and dissociation rate constant, and the latter was used to calculate the antigen/antibody complex dissociation t1/2 (Table 1).
# Human NGF (NGF) is highly homologous in amino acid sequence to mouse NGF (mNGF) and rat NGF (rNGF) with about 90% identity. The binding affinities of the antibodies to both mNGF and rNGF were determined as described above.
# The binding affinity of selected purified anti-NGF antibodies to mNGF and rNGF were also determined (Table 6).
# [4] = system: NT-3 levels in sera of naïve C57BL/6 mice; assay: Serum NT-3 sandwich ELISA, naive mice; type: in vivo, mouse; details: 50 mg/kg s.c.
# Excerpt: The limit of detection (˜40 pg/ml) was defined as two standard deviations (2σ) above background with a minimum of five NT-3 standards to define the response to concentration curve.
# [5] = molecular target: Human NGF binding to human p75-hFc (Homo sapiens, UniProt P01138, DEL136-138/DEL208-209); assay: BIACORE receptor blocking assay, free NGF bound to p75-hFc; details: percentage free NGF bound; NGF 10-25 nM with molar excess of antibody; NGF alone = 100%
# Excerpt: To identify blocking antibodies, a receptor blocking assay was designed using a BIACORE™ 3000 instrument. Recombinant human TrkA-hFc and human p75-hFc proteins were amine-coupled to a CM5 chip to a density of about 5000-6000 RU.
# Sequence of rat NGF (rNGF) (P25427 122-241): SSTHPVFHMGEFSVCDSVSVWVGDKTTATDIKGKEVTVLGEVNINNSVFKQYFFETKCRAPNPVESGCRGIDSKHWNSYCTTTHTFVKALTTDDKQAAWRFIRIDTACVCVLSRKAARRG
# T1 sequence (P01138 with tags, fused parts or gaps DEL136-138/DEL208-209): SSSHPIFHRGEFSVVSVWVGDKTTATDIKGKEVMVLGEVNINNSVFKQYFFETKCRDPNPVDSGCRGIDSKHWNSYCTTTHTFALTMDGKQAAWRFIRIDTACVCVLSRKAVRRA
# Sequence of Human NGF binding to human p75-hFc (P01138 with tags, fused parts or gaps DEL136-138/DEL208-209): as above
substance,measurement,setting,value
tanezumab [RN624],"reduction of post-operative pain vs vehicle, weight bearing test","C57BL/6 mice; 10 mg/kg s.c. 1 hr prior to incision, p<0.001-0.05",significantly reduced the post-operative pain
same,mean percent weight distribution on affected limb,"C57BL/6 mice; 10 mg/kg s.c. pre-incision, Day 0, ±SEM",49.0 ± 0.5%
same,mean percent weight distribution on affected limb,"C57BL/6 mice; 10 mg/kg, Day 1 after surgery",44.8 ± 1.9%
same,mean percent weight distribution on affected limb,"C57BL/6 mice; 10 mg/kg, Day 2 after surgery",42.7 ± 1.8%
same,mean percent weight distribution on affected limb,"C57BL/6 mice; 10 mg/kg, Day 3 after surgery",48.7 ± 1.9%
same,mean percent weight distribution on affected limb,"C57BL/6 mice; 10 mg/kg, Day 4 after surgery",47.2 ± 1.2%
same,mean percent weight distribution on affected limb,"C57BL/6 mice; 10 mg/kg, Day 5 after surgery",49.7 ± 0.7%
same,IC50,[1],< 186 pM
same,Serum NT-3,[2],172 ± 114 pg/mL
same,IC50,[3],~105000 pM
same,Kd,rat NGF (rNGF); Table 5,1.5 pM
same,Kd,"rat NGF (rNGF); Table 6, selected purified antibodies",1.51 pM
same,Serum NT-3,"[4]; Day 1, limit of detection ~40 pg/ml",131 ± 41 pg/mL
same,Serum NT-3,[4]; Day 7,199 ± 15 pg/mL
same,Serum NT-3,[4]; Day 14,196 ± 35 pg/mL
same,NT-3 levels,"[4]; over 1, 7 and 14 days post treatment",131 to 199 pg/mL
same,% Binding p75-hFc,[5],16%
